# From PMC7023435 (Pharmaceutics, 2020)
# Experiments:
# Caco-2 cell monolayers = assay: In vitro insulin permeation and TEER across Caco-2 cell monolayers, PE:insulin in microcontainers or solution; type: in vitro ADME; conditions: Caco-2, apical to basolateral, 2 h, 37 °C, 75 rpm, hHBSS pH 7.4 with 0.05% BSA, PE:insulin 1:4 w/w, RP-HPLC UV 214 nm, n = 3 passages in triplicate
# Description: Cell culturing was done in DMEM supplemented with FBS (10%, v/v), L-glutamine (2 mM), penicillin (100 U/mL), streptomycin (100 µg/mL) and NEAA (1%, v/v) for 21–23 days at 37 °C and 5% CO2 with a final density of 1 × 10^5 cells/cm^2. […] The transepithelial electrical resistance (TEER) of the Caco-2 cell monolayers was measured upon equilibration to room temperature using an Epithelial Volt/Ohm Meter (World Precision Instruments, Sarasota, FL, USA) with Endohm™ chambers. First recording took place in culture medium prior to the permeation study; after which, the monolayers were washed twice with permeation buffer consisting of 10 mM HEPES in HBSS (hHBSS) supplied with BSA (0.05%, w/v), NaHCO3 (0.38%, w/v) and adjusted to pH 7.4. […] Each of the three different studies per PE was carried out in triplicates and across three passages with all studies conducted within eight passages. […] The MC chips were then removed from the Caco-2 cell monolayers, followed by washing twice with hHBSS before TEER was recorded again.
# In vitro permeation samples without proteolysis were separated on a Kinetex XB-C18 column (100 × 4.6 mm, 5 µm, 100 Å; Phenomenex, Torrance, CA, USA), with two mobile phases of A: 0.1% (v/v) TFA in water and B: 0.1% (v/v) TFA in acetonitrile. […]
# epithelial integrity = conditions: cited from earlier work
# Description: The effect of local high PE concentrations on the monolayer under the opening of C10-releasing MCs has previously been visualized by laser-scanning confocal microscopy of cell monolayers cultured on Transwell® filters. Furthermore, we have previously shown that the monolayers, u ...
# [1] = test system: porcine intestinal tissue; assay: Ex vivo intestinal permeation study in Franz diffusion cells; type: in vitro ADME, pig; conditions: Franz diffusion cell, hDMEM, 37 °C, 3 h, MC chip on mucosa, insulin by ELISA, n = 3
# Description: The jejunum and ileum were collected from an anaesthetized pig (approx. 40 kg) immediately before it was euthanized. […] Intestinal segments of 10–20 cm were prepared and stored at −20 °C until the day of the permeation study. Prior to the study, a segment was thawed in 10 mM HEPES-buffered DMEM (hDMEM) and longitudinally cut open. Luminal contents were washed away with hDMEM and the muscularis was removed using tweezers before the mucosa was cut into 4 × 4 cm pieces and placed in Franz diffusion cells. Each receptor compartment was filled with 7 mL of hDMEM facing the serosal side of the intestinal tissue. The donor side, facing the mucosa, was filled with 1.5 mL FD70 solution (100 µg/mL) in hDMEM to imitate the inclusion of a pathogen. Permeation was initiated by placing a chip of loaded MCs directly on top with the openings facing the mucosa.
# [2] = target: α-chymotrypsin from bovine pancreas (Bos taurus, UniProt P00766); conditions: insulin 600 µg/mL, FaSSIF, 37 °C, RP-HPLC
# Description: The compatibility of integrating proteolysis in the in vitro permeation setup was then tested by measuring TEER and viability as the metabolic activity of Caco-2 cell monolayers after 2 h of apical exposure to different concentrations of α-chymotrypsin (0, 10, 50 and 100 µg/mL) in hHBSS. Viability was determined after washing the cells with fresh hHBSS followed by the apical addition of 1.5 mL freshly made MTS (240 µg/mL) and PMS solution (2.4 µg/mL) in hHBSS before incubation in dark conditions for 1.5 h with 75 rpm orbital shaking at 37 °C. The absorbance at 492 nm of three 100 µL samples from each well was measured in a 96-well plate using a Multiskan MS 352 Microplate Reader (Labsystems, Helsinki, Finland).
# [3] = oral dosage form of insulin using C10, high doses required; cited from earlier work
# [4] = test system: Caco-2 cell monolayers with apical α-chymotrypsin; assay: Combined in vitro permeation and proteolysis; conditions: absence of protease inhibition (insulin:SDS:MCC MCs), apical α-chymotrypsin 0.49 U/mL, 37 °C, RP-HPLC
# Description: Cell culturing was done in DMEM supplemented with FBS (10%, v/v), L-glutamine (2 mM), penicillin (100 U/mL), streptomycin (100 µg/mL) and NEAA (1%, v/v) for 21–23 days at 37 °C and 5% CO2 with a final density of 1 × 10^5 cells/cm^2. […] The transepithelial electrical resistance (TEER) of the Caco-2 cell monolayers was measured upon equilibration to room temperature using an Epithelial Volt/Ohm Meter (World Precision Instruments, Sarasota, FL, USA) with Endohm™ chambers. […] The MC chips were then removed from the Caco-2 cell monolayers, followed by washing twice with hHBSS before TEER was recorded again.
# The compatibility of integrating proteolysis in the in vitro permeation setup was then tested by measuring TEER and viability as the metabolic activity of Caco-2 cell monolayers after 2 h of apical exposure to different concentrations of α-chymotrypsin (0, 10, 50 and 100 µg/mL) in hHBSS. Viability was determined after washing the cells with fresh hHBSS followed by the apical addition of 1.5 mL freshly made MTS (240 µg/mL) and PMS solution (2.4 µg/mL) in hHBSS before incubation in dark conditions for 1.5 h with 75 rpm orbital shaking at 37 °C. The absorbance at 492 nm of three 100 µL samples from each well was measured in a 96-well plate using a Multiskan MS 352 Microplate Reader (Labsystems, Helsinki, Finland). […]
# [5] = in vivo; cited from earlier work
# Description: For overcoming the absorption barrier, PEs have been developed and studied both for paracellular enhancement by tight junction opening and transcellular e ...
molecule,measurement,setting,value
"CCCCCCCCCC(=O)[O-].[Na+] [C10, n-Capric acid sodium salt]",potency as PE based on the insulin permeation rates,Caco-2 cell monolayers,equal in vitro potency to C12-carnitine
same,concentration inducing in vitro permeation,epithelial integrity; in the order,~10 mM
"CCCCCCCCCCCCOS(=O)(=O)[O-].[Na+] [SDS, sodium dodecyl sulfate]",potency as PE based on the insulin permeation rates,Caco-2 cell monolayers,significantly more potent PE when compared to C10 and C12-carnitine
same,insulin permeation across porcine intestinal tissue,[1],significantly higher insulin permeation
same,barrier integrity after exposure,epithelial integrity; 2 h exposure to 0.40 mM SDS,irreversible deterioration of barrier integrity
same,SDS concentration resulting in immediate loss of epithelial integrity,epithelial integrity; concentrations as low as,0.40 mM
insulin (human recombinant),native insulin remaining,"[2]; after 45–60 min, without STI, α-chymotrypsin 0.49 U/mL",approximately 20%
same,native insulin degraded after 2 h,"[2]; α-chymotrypsin 10 µg/mL (0.49 U/mL), 12 µg/mL STI, n = 3",more than 90%
same,glycemic control,[3],glycemic control similar to subcutaneously administered insulin
same,insulin digested on the apical side after 2 h,[4],Almost all
semaglutide,oral bioavailability,[5],0.1–1.2%
